# Laboratory results taken from ChEMBL document CHEMBL4002620, “Synthesis of Vorinostat and cholesterol conjugate to enhance the cancer cell uptake selectivity” (Bioorg Med Chem Lett, 2017).
# Columns and labels:
# NCI-H292 [1] = assay: cells; format: functional, cell-based; conditions: Homo sapiens, NCI-H292, 72 h
# Description: Growth inhibition of human NCI-H292 cells after 72 hrs by MTT assay
# [2] = Solubility of the compound in aqueous solution at 500 uM in presence of LDL; format: physicochemical; conditions: buffer
# [3] = Drug metabolism in human NCI-H292 cells assessed as compound hydrolysis by measuring increase in 4-amino SAHA formation after 30 mins by HPLC-ESI-MS analysis; format: ADME, cell-based; conditions: nci-h292, 0.5 h
# NCI-H292 [4] = assay: cells; format: functional, cell-based; conditions: Homo sapiens, NCI-H292, 72 h; remark: listed apart in the source
# Description: Growth inhibition of human NCI-H292 cells after 72 hrs in presence of LDL by MTT assay
# NCI-H292 [5] = assay: cells; format: functional, cell-based; conditions: Homo sapiens, NCI-H292, 72 h; remark: listed apart in the source
# Description: Growth inhibition of human NCI-H292 cells in LDL depleted FBS containing medium after 72 hrs using compound after sonication in presence of LDL by MTT assay
# [6] = Solubility of the compound in aqueous solution at 20 uM; format: physicochemical; conditions: buffer
# NCI-H292 [7] = assay: cells; format: functional, cell-based; conditions: Homo sapiens, NCI-H292, 72 h; remark: listed apart in the source
# Description: Growth inhibition of human NCI-H292 cells in FBS containing medium after 72 hrs using compound after sonication in presence of LDL by MTT assay
IC50 (NCI-H292 [1]) [µM],solubility [2],Drug metabolism [3],IC50 (NCI-H292 [4]) [µM],IC50 (NCI-H292 [5]) [µM],solubility [6],IC50 (NCI-H292 [7]) [µM],Compound
> 500,Soluble,Metabolite_Detected,> 500,91.2,Insoluble,> 500,CC(C)CCC[C@@H](C)[C@H]1CC[C@H]2[C@@H]3CC=C4C[C@@H](OC(=O)Nc5ccc(NC(=O)CCCCCCC(=O)NO)cc5)CC[C@]4(C)[C@H]3CC[C@]12C
2.77,–,–,14.9,7.8,–,14.7,Nc1ccc(NC(=O)CCCCCCC(=O)NO)cc1
